Data published in patent US8901105B2, “Prodrug derivatives of (E)-N-methyl-N-((3-M ethylbenzofuran-2-yl)methyl)-3-(7-oxo-5,6,7,8-tetrahydro-1,8-naphthyridin-3-yl)acrylamide” (Affinium Pharmaceuticals, Inc., priority 2012, dated 2014).
Where a name gives a salt, the structure may show the parent alone. Read-outs that look alike come from different tables or passages of the source.

Tests used:
[1] = Photostability of solid salts; format: physicochemical
[2] = XRPD crystal form after storage; format: physicochemical; details: after 3 months at all conditions
Procedure: Various compounds disclosed herein have been placed on long-term solid-state stability protocol. The compounds were stored in glass vials closed with PTFE lined caps at 30° C./65% RH, 40° C./75% RH, 50° C. and 60° C. (ambient humidity). The results of the study after 4 weeks are shown in Table B1 and after 3 months in Table B2. Appearance and purity analysis were conducted using HPLC and XPRD. The HPLC analyses were conducted using standard equipment such as a Agilent HP1100 HPLC (Station ID: LZPES HPLC 04) with YMC-Pack ODS-AQ sub 3 μm, 150×4.6 mm Samples were prepared for XRPD by sprinkling ˜20 mg onto a Si wafer zero background plate and pressing the material flat to ensure the surface is smooth and level. The samples were analyzed according the equipment parameters below.

[3] = Solution stability in water for injection (WFI); format: physicochemical
[4] = Solution stability in 5% dextrose in water (D5W); format: physicochemical
[5] = tested on: Enterococcus faecalis; experiment: Broth microdilution MIC; format: cell-based
Procedure: (§1) Bacterial Isolates. Organisms tested in this study are listed in Table P. Clinical isolates consisted of 5 Staphylococcus aureus (MSSA), 3 Staphylococcus aureus (HA-MRSA), 2 Staphylococcus aureus (CA-MRSA), 2 Enterococcus faecalis (VSE), 2 Streptococcus pyogenes, and 2 Escherichia coli (susceptible to most antibiotics). S. aureus ATCC 29213, E. faecalis ATCC 29212, S. pneumoniae ATCC 49619, and E. coli ATCC 25922 were tested for the purposes of quality control.
(§2) Minimal Inhibitory Concentrations (MIC) values against the selected isolates were determined using the reference broth microdilution method according to the Clinical Laboratory Standards Institute (CLSI) guidelines.
(§3) The MIC was read and recorded as the lowest concentration of drug that inhibited visible growth of the organism.

[6] = tested on: Escherichia coli; experiment: Broth microdilution MIC; format: cell-based; details: Escherichia coli, read-out: MIC
Procedure: as §1, §2, §3

[7] = tested on: Staphylococcus aureus; experiment: Broth microdilution MIC; format: cell-based; details: for MIC: Staphylococcus aureus, read-out: MIC
Procedure: as §1, §2, §3

[8] = tested on: Streptococcus pneumoniae; experiment: Broth microdilution MIC; format: cell-based; details: ATCC49619, S. pneumoniae ATCC 49619, read-out: MIC
Procedure: as §1, §2, §3

[9] = tested on: Streptococcus pyogenes; experiment: Broth microdilution MIC; format: cell-based
Procedure: as §1, §2, §3

[10] = target: T1, S. aureus FabI (Staphylococcus aureus, UniProt Q6GI75); experiment: Inhibition of S. aureus FabI; format: biochemical
T1 sequence (Q6GI75 1-256): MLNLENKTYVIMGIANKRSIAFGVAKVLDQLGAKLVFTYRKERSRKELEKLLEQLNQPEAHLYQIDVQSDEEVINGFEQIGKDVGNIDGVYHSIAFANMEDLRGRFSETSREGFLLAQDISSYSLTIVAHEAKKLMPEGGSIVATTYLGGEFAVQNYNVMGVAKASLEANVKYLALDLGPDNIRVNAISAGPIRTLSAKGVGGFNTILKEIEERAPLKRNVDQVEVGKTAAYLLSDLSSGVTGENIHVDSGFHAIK

[11] = 1 mg/mL solution, 5° C., 4 hours
[12] = 1 mg/mL solution, 5° C., 24 hours
[13] = 1 mg/mL solution, 5° C., 48 hours
[14] = 1 mg/mL solution, −20° C., 48 hours
[15] = 25 mg/mL solution, 5° C., 4 hours
[16] = 25 mg/mL solution, 5° C., 24 hours
[17] = 25 mg/mL solution, 5° C., 48 hours
[18] = 25 mg/mL solution, RT, 24 hours
[19] = 25 mg/mL solution, RT, 48 hours
[20] = 25 mg/mL solution, −20° C., 48 hours

Control % Area (Table C) ([1]; control sample at ambient lab conditions protected from light): 98.9 % Area | Photo-stability % Area ([1]; exposed to 60% of ICH minimum): 97.7 % Area | change in crystal form (XRPD) [2]: no change in crystal form | Solution stability [3, 11]: 0.96 mg/mL | Solution stability % Area [3, 11]: 99.4 % Area | Solution stability [3, 12]: 0.94 mg/mL | Solution stability % Area [3, 12]: 98.1 % Area | Solution stability [3, 13]: 0.96 mg/mL | Solution stability % Area [3, 13]: 98.1 % Area | Solution stability ([3]; 1 mg/mL solution, Initial): 0.97 mg/mL | Solution stability % Area ([3]; 1 mg/mL solution, Initial): 99.4 % Area | Solution stability ([3]; 1 mg/mL solution, RT, 4 hours): 0.94 mg/mL | Solution stability % Area ([3]; 1 mg/mL solution, RT, 4 hours): 99.0 % Area | Solution stability ([3]; 1 mg/mL solution, RT, 24 hours): 0.92 mg/mL | Solution stability % Area ([3]; 1 mg/mL solution, RT, 24 hours): 95.5 % Area | Solution stability ([3]; 1 mg/mL solution, RT, 48 hours): 0.64 mg/mL | Solution stability % Area ([3]; 1 mg/mL solution, RT, 48 hours): 92.1 % Area | Solution stability [3, 14]: 0.96 mg/mL | Solution stability % Area [3, 14]: 99.3 % Area | Solution stability [3, 15]: 25.0 mg/mL | Solution stability % Area [3, 15]: 99.3 % Area | Solution stability [3, 16]: 24.4 mg/mL | Solution stability % Area [3, 16]: 98.6 % Area | Solution stability [3, 17]: 23.1 mg/mL | Solution stability % Area [3, 17]: 98.0 % Area | Solution stability ([3]; 25 mg/mL solution, Initial): 24.05 mg/mL | Solution stability % Area ([3]; 25 mg/mL solution, Initial): 99.5 % Area | Solution stability ([3]; 25 mg/mL solution, RT, 4 hours): 23.9 mg/mL | Solution stability % Area ([3]; 25 mg/mL solution, RT, 4 hours): 98.8 % Area | Solution stability [3, 18]: 22.5 mg/mL | Solution stability % Area [3, 18]: 95.2 % Area | Solution stability [3, 19]: 22.8 mg/mL | Solution stability % Area [3, 19]: 91.5 % Area | Solution stability [3, 20]: 24.4 mg/mL | Solution stability % Area [3, 20]: 99.2 % Area | Solution stability [4, 11]: 0.99 mg/mL | Solution stability % Area [4, 11]: 99.4 % Area | Solution stability [4, 12]: 0.99 mg/mL | Solution stability % Area [4, 12]: 98.8 % Area | Solution stability [4, 13]: 1.00 mg/mL | Solution stability % Area [4, 13]: 98.1 % Area | Solution stability ([4]; 1 mg/mL solution, Initial): 1.00 mg/mL | Solution stability % Area ([4]; 1 mg/mL solution, Initial): 99.5 % Area | Solution stability ([4]; 1 mg/mL solution, RT, 4 hours): 0.99 mg/mL | Solution stability % Area ([4]; 1 mg/mL solution, RT, 4 hours): 99 % Area | Solution stability ([4]; 1 mg/mL solution, RT, 24 hours): 0.96 mg/mL | Solution stability % Area ([4]; 1 mg/mL solution, RT, 24 hours): 96.1 % Area | Solution stability ([4]; 1 mg/mL solution, RT, 48 hours): 0.95 mg/mL | Solution stability % Area ([4]; 1 mg/mL solution, RT, 48 hours): 93.1 % Area | Solution stability [4, 14]: 0.99 mg/mL | Solution stability % Area [4, 14]: 99.3 % Area | Solution stability [4, 15]: 24.9 mg/mL | Solution stability % Area [4, 15]: 99.3 % Area | Solution stability [4, 16]: 24.5 mg/mL | Solution stability % Area [4, 16]: 98.7 % Area | Solution stability [4, 17]: 24.5 mg/mL | Solution stability % Area [4, 17]: 98.1 % Area | Solution stability ([4]; 25 mg/mL solution, Initial): 24.4 mg/mL | Solution stability % Area ([4]; 25 mg/mL solution, Initial): 99.6 % Area | Solution stability ([4]; 25 mg/mL solution, RT, 4 hours): 24 mg/mL | Solution stability % Area ([4]; 25 mg/mL solution, RT, 4 hours): 98.9 % Area | Solution stability [4, 18]: 23.8 mg/mL | Solution stability % Area [4, 18]: 95.6 % Area | Solution stability [4, 19]: 23 mg/mL | Solution stability % Area [4, 19]: 92.1 % Area | Solution stability [4, 20]: 24.6 mg/mL | Solution stability % Area [4, 20]: 99.3 % Area | MIC ([5]; ATCC29212, E. faecalis ATCC 29212, read-out: MIC): > 16 µg/mL | MIC ([5]; E. faecalis 4158, VSE, read-out: MIC): > 16 µg/mL | MIC ([5]; E. faecalis 4212, VSE, read-out: MIC): > 16 µg/mL | MIC ([6]; ATCC25922, E. coli ATCC 25922): > 16 µg/mL | MIC ([6]; E. coli 2214): > 16 µg/mL | MIC ([6]; E. coli 5255): > 16 µg/mL | MIC ([7]; ATCC29213, S. aureus ATCC 29213): 4 µg/mL | MIC ([7]; MRSA, S. aureus 3083, HA-MRSA): 4 µg/mL | MIC ([7]; MRSA, S. aureus 3086, HA-MRSA): 16 µg/mL | MIC ([7]; MRSA, S. aureus 3265, HA-MRSA): 16 µg/mL | MIC ([7]; MSSA, S. aureus 3104, MSSA): > 16 µg/mL | MIC ([7]; MSSA, S. aureus 3107, MSSA): 8 µg/mL | MIC ([7]; MSSA, S. aureus 3245, MSSA): 16 µg/mL | MIC ([7]; MSSA, S. aureus 3250, MSSA): 8 µg/mL | MIC ([7]; MSSA, S. aureus 3856, MSSA): 16 µg/mL | MIC ([7]; S. aureus 2168, CAMRSA): 4 µg/mL | MIC ([7]; S. aureus 2294, CAMRSA): 16 µg/mL | MIC [8]: > 16 µg/mL | MIC ([9]; S. pyogenes 6528): >16 µg/mL | MIC ([9]; Streptococcus pyogenes, S. pyogenes 6179, read-out: MIC): > 16 µg/mL | inhibition of S. aureus FabI [10]: no inhibition
Compound: Cc1c(CN(C)C(=O)/C=C/c2cnc3c(c2)CCC(=O)N3COP(=O)(O)O)oc2ccccc12 [Compound 10, (E)-6-[(N-methyl-((3-methylbenzofuran-2-yl)methyl)amino)-3-oxoprop-1-en-1-yl)-2-oxo-3,4-dihydro-1,8-naphthyridin-1(2H)-yl]methylphosphate bis-ethanolammonium salt]
times less activity than Compound Z ([7]; panel of 11 S. aureus strains): 500-4000 times
